The nature of the series: Solubility in water of the drug substance. In kind it is physicochemical. To be noted: drug substance as used. An excerpt: The drug solubility in water of a drug may be determined, for example, in accordance with the method described in the General Notices of The Japanese Pharmacopoeia, Seventeenth Edition.

≈ marks a conversion by molar mass, not a printed value.

Regarding `Cc1cccc(C)c1N(CC(=O)Nc1ccc(-c2ncon2)cc1)C(=O)C1CCS(=O)(=O)CC1` [amenamevir], under “water, 20 °C, thermodynamic from solid”, the solubility (as a rule, the dissolved amount per volume that the medium holds) at 30 min came out at 5 µg/mL (≈ 10.4 µM).

`C=CC[C@@H]1/C=C(\C)C[C@H](C)C[C@H](OC)[C@H]2O[C@@](O)(C(=O)C(=O)N3CCCC[C@H]3C(=O)O[C@H](/C(C)=C/[C@@H]3CC[C@@H](O)[C@H](OC)C3)[C@H](C)[C@@H](O)CC1=O)[C@H](C)C[C@@H]2OC` [tacrolimus] showed a Solubility in water of 4 µg/mL (≈ 4.97 µM).

Source of the values: patent US11376328B2, “Pharmaceutical composition” (Astellas Pharma Inc., priority 2017, dated 2022).
